Test results from a melting point compilation (Tetko et al.; mined from patent text by program, amines drawn as free bases though some values may be those of a salt).
Residues, ends and D or L forms follow the SMILES beside them. *: point of attachment. Tos = Cc1ccc(S(=O)(=O)*)cc1

| Structure (SMILES) | melting point [°C] |
| --- | --- |
| COCc1nc2c(C(F)(F)F)cccc2c(O)c1C(=O)Nc1nccs1 | 260 |
| CCC(c1ccc(-c2ccc(Cl)cc2)cc1)N1CCNCC1 (stereo not drawn) | 95 to 97 |
| O=C1c2ccccc2COc2ccc(CC=NO)cc21 | 132 to 134 |
| CC(C)N=C(NC#N)NCCN1CCC(C(=O)c2ccc(F)cc2)CC1 | 158 to 160 |
| CC(=N)NS(=O)(=O)C=Cc1ccc(Cl)cc1 | 161 to 163 |
| CC(C)(Nc1cc(Cl)ccc1[N+](=O)[O-])C(=O)O | 146 to 147 |
| O=C(Nc1ccc(N2CCN(Cc3ccc[nH]3)CC2)cc1)c1ccccc1-c1ccc(C(F)(F)F)cc1 | 191 to 193 |
| CCOC(=O)c1cnc2sc(CN3CCOCC3)c(C)c2c1O | 182 to 185 |
| COc1cc(CO)c(-c2cc3c(cc2CO)OCO3)c(OC)c1OC | 123 to 124 |
| C=C(C)COc1ccc(Br)cc1CN(CC)c1ccc(C(=O)NS(=O)(=O)c2scnc2C)nn1 | 128 |
| COc1ccc2c(c1)Sc1cc([N+](=O)[O-])ccc1N2C(C)=O | 156 to 157 |
| CC(C)CC(=O)Nc1c(C(N)=O)nnn1Cc1ccccc1 | 181 to 182 |
| CC(c1oc2ccc(F)cc2c(=O)c1-c1ccccc1)n1cnc2c(N)ncnc21 (stereo not drawn) | 264 to 269 |
| CCCCCCCCCCCCSC1c2cccc(O)c2C(=O)c2c(O)cccc21 | 76 |
| CN1C(=O)N2[C@H](c3cccc(O)c3)c3[nH]c4ccc(Br)cc4c3C[C@@]2(C)C1=O (racemic) | 248 to 251 |
| Cc1ncc(-c2ccc([C@H](C)N3CC[C@](CCCO)(c4ccc(F)cc4)OC3=O)cc2)cn1 | 166 to 168 |
| CC(=O)Nc1ccc(F)cc1C(=O)O | 168 to 170 |
| O=c1[nH]c(=O)n([C@@H]2CO[C@@H](CO)O2)cc1/C=C/Br | 75 to 78 |
| CCS(=O)(=O)c1ccc(-c2coc3ccc(-c4nnc(C)o4)nc23)cc1 | 246 to 247 |
| O=c1c2cc(Oc3ccc(Cl)cc3)ccc2cnn1Cc1cccnc1 | 150 to 152 |

| Structure (SMILES) | melting point [°C] |
| --- | --- |
| CC(=O)C(=Cc1ccc(S(C)(=O)=O)c(Br)c1)C(C)=O | 135 to 139 |
| CS(=O)(=O)c1ccc(-c2cc(C=O)sc2-c2ccc(F)cc2)cc1 | 165 to 166 |
| Cc1cc(SC2=C(O)CC(CCC3CCCO3)(C(C)C)OC2=O)c(C(C)(C)C)cc1CO (stereo not drawn) | 57 to 59 |
| CCCCC(=N)NC(=S)Nc1ccc(Cl)cc1 | 164 to 166 |
| COc1ccc(S(=O)(=O)c2c(Br)cc(CC(=O)O)cc2Br)cc1C(C)C | 170 to 173 |
| CN(C(N)=O)c1cc(C(C)(C)C)on1 | 134 to 135 |
| CON=C(C(=O)OC)c1nsc(N)n1 | 172 to 174 |
| COc1cc([N+](=O)[O-])c(C(=O)c2ccccc2)cc1O | 154 to 156 |
| NCc1ccc(O)cc1 | 104 |
| COc1c(C)c(C)c2c(c1C)CC(CC(=O)O)O2 (racemic) | 74 to 76 |
| CC(C)N(CCN1C(=O)/C(=N/NC(N)=O)c2ccc(Cl)cc21)C(C)C | 205 to 208 |
| Nc1ccc(S(=O)(=O)C[N+](=O)[O-])cc1 | 132 to 133 |
| CCCCc1nc(C(O)c2ccccc2)c(C(=O)O)n1Cc1ccc(-c2ccccc2C(=O)O)cc1 (stereo not drawn) | 192 to 194 |
| O=S(=O)(N[C@H](CO)Cc1c[nH]c2ccccc12)c1cccc2ccccc12 | 85 to 87 |
| COc1nsnc(Cl)c1=O | 159 to 161 |
| O=C1NC(=O)C2(C=Cc3c(Cl)sc(Cl)c32)N1 (stereo not drawn) | 239 to 241 |
| CN1CC=C(c2c[nH]c3ccc(OS(=O)(=O)c4ccccc4)cc23)CC1 | 186 to 190 |
| COc1ccc(C(=O)Nc2ccccc2)cc1 | 156 to 158 |
| CCOC(=O)C1=C(C)Nc2nc(N3CCCCC3)nc(N3CCCCC3)c2C1c1cccc([N+](=O)[O-])c1 (stereo not drawn) | 169 |
| O=C1CCCN1c1ccnn1-c1c(Cl)cc(C(F)(F)F)cc1Cl | 130 to 131 |

| Structure (SMILES) | melting point [°C] |
| --- | --- |
| COc1cc(-c2cc3ccccc3[nH]2)cc(OC)c1OS(=O)(=O)c1ccccc1 | 150 |
| Cc1ccc(S(=O)(=O)N2CCC[C@H]2C(=O)N[C@@H](CCC(=O)O)C(=O)O)cc1 (Tos-Pro-Glu-OH) | 164 to 166 |
| CCOC(=O)Cc1csc(-c2c(O)cccc2O)n1 | 152 to 154 |
| CNc1cnn(-c2ccc(F)cc2)c(=O)c1-c1cccc(C(F)(F)F)c1 | 161 to 162 |
| NS(=O)(=O)c1ccc(CCN2C(=O)c3ccccc3C2=O)s1 | 226 to 229 |
| Cn1c(CO)c(-c2ccccc2)c2ccccc2c1=O | 159 to 161 |
| O[C@@H]1CN(CCNc2ncccn2)CC[C@H]1NCc1ccccc1 (relative stereo) | 127 |
| CCOCC1COc2c(cc(N)cc2C(F)(F)F)O1 (stereo not drawn) | 96 to 98 |
| NC(=O)CCN1C(=O)[C@@H](CC(=O)NCCc2ccc(Br)cc2)S[C@H]1c1ccc(C#Cc2ccccc2)s1 (relative stereo) | 224 to 227 |
| COc1ccc(SC2=C(C(=O)O)CCC2=CCCc2ccccc2)cc1OC | 146 to 148 |
| Cn1cc(CN2C(=O)C3(COc4cc5c(cc43)OCO5)c3ccccc32)ccc1=O (stereo not drawn) | 115 to 118 |
| CCCCN1CCC(CNC(=O)c2ccc(N)n3c(Cl)c(CC)nc23)CC1 | 86 to 90 |
| COc1cnn(C2CCCCO2)c(=O)c1 (stereo not drawn) | 76 to 78 |
| O=C(O)c1oc(=O)c2ccccc2c1-c1ccc(F)cc1 | 218 to 220 |
| NC(=O)Cc1cccc(Cn2ccc(OCc3ccc(F)cc3F)c(Br)c2=O)c1 | 164 to 167 |
| COCCOc1ccc(/C=C/C(=O)O)c(OCc2nc(-c3ccccc3)oc2C)c1 | 194 to 196 |
| COc1ccc(C2=C(N)c3cc(OC)ccc3C2=O)cc1 | 213 |
| CC(=O)NCC1CC1c1cccc2nc(C)sc12 (stereo not drawn) | 96 to 98 |
| CC1(C)CC2(CC(C)(C)c3ccc(Oc4ccc(N)cc4)cc32)c2cc(Oc3ccc(N)cc3)ccc21 | 214 to 215 |
| CCON=C(CC)C1=C(O)CC(c2ccc3c(c2)OCC(=O)N3)CC1=O (stereo not drawn) | 160 to 162 |

More lines, now with the values ahead:

| melting point [°C] | Structure (SMILES) |
| --- | --- |
| 79 | CC1(C)O[C@H]2[C@H](OCc3ccccc3)O[C@H](C(=O)O)[C@H]2O1 |
| 74 to 76 | COC(=O)C(=CN1CCCC1)C(=O)c1cc(F)c(Cl)cc1Cl |
| 100 to 106 | COc1ccc(-c2cc(OCC3CO3)c3ccccc3n2)cc1 (racemic) |
| 255 | CC(=O)Nc1ccc(Oc2c(NCc3ccccc3)cc(C(=O)O)cc2S(N)(=O)=O)cc1 |
| 187 to 189 | COCc1nc2nccnc2c(=O)[nH]1 |
| 99 to 100 | FC(F)(F)c1ccc(-c2oncc2CCl)cc1 |
| 224 to 227 | COc1ccc2c(c1)c1c3c(c(-c4c(Cl)cccc4OC)cc1n2CCCO)C(=O)NC3=O |
| 200 to 202 | CCC(=O)NC[C@H]1CN(c2ccc(N3CCC(=CC#N)CC3)c(F)c2)C(=O)O1 |
| 232 to 236 | CC(C)C(NC(=O)Cc1ccc(-c2ccccc2)cc1)C(=O)Nc1n[nH]c(=S)s1 (stereo not drawn) |
| 86 | CCc1n[nH]c(=O)n1C |
| 162 to 163 | Cc1c(Cl)cc(C(C)C)c2oc(SCCN3CCN(CC(=O)Nc4c(C(C)C)cccc4C(C)C)CC3)nc12 |
| 163 to 165 | CC1CC(=O)c2c(SCc3ccccc3)ccc(-c3ccccn3)c2C1 (stereo not drawn) |
| 35 to 37 | CCCCCCOC1CCC(=O)N1 (stereo not drawn) |
| 119 to 120 | COc1cc(C(=O)N2CCN(C(=O)OC(C)(C)C)C(CO)C2)cc(OC)c1OC (stereo not drawn) |
| > 310 | O=c1[nH]c2c([nH]1)-c1ccncc1CC2 |
| 234 to 236 | COc1ccc(COC(=O)C2=C3[C@H]4CCCC[C@H]4[C@@H]3S[C@@H]3[C@H](NC(=O)Cc4ccccc4)C(=O)N23)cc1 |
| 125 to 127 | Nc1sc2c(c1C(=O)c1ccsc1)CCC2 |
| 128 to 136 | OCc1cc(Cl)c(Cl)cc1CO |
| 258 to 260 | Nc1nc2c(ncn2OCC(O)CP(=O)(O)O)c(=O)[nH]1 (stereo not drawn) |
| 122 to 123 | COc1ccc(/C(=C/c2ccncc2)c2ccco2)cc1OC1CCCC1 |
| 219 | COc1ccc2c(c1)c(Cc1nc(-c3ccc([N+](=O)[O-])cc3)cs1)c(C)n2C(=O)c1ccc(Cl)cc1 |
| 198 to 201 | CCCN(CCC)CCc1ccc(OC)c2[nH]nc(O)c12 |

| melting point [°C] | Structure (SMILES) |
| --- | --- |
| 194 to 196 | O=C(Nc1cccc2c(-c3ccccc3)c([N+](=O)[O-])oc12)C(F)(F)F |
| 88 to 90 | CCC1CCC(=NO)C=C1c1ccc(OCC(=O)O)c(Cl)c1Cl (stereo not drawn) |
| 177 to 178 | CNC(=O)NC(=O)/C(=C/C(C)C)c1ccc(Cl)c(Cl)c1 |
| 76 to 77 | CC(Oc1cc(Cl)ccc1Br)C(=O)N(C)C (stereo not drawn) |
| 66 to 68 | Cc1ccc(C=NO)cc1Cl |
| 154 | CCSC(c1ccc(Cl)cc1)C(C(=O)C(C)(C)C)n1cncn1 (stereo not drawn) |
| 108 to 109 | CCCCOc1cc(C2(C)CNC(=O)O2)ccc1OC (stereo not drawn) |
| 211 to 222 | O=[N+]([O-])c1ccccc1Nc1ccc(-c2ccc(Nc3ccccc3[N+](=O)[O-])cc2)cc1 |
| 114 to 115 | CC(=O)C[C@@H]1c2cc(C#N)ccc2OC(C)(C)[C@H]1O (relative stereo) |
| 132 to 140 | CN1CCC(C2Oc3cc(Cl)ccc3Cn3c(Cl)ccc32)CC1 (stereo not drawn) |
| 138 to 139 | COc1ccccc1COc1ccc(-c2cc(O)c(SCCc3ccccc3)c(=O)o2)cc1 |
| 58 to 72 | CCOC(=O)C(Cc1ccccc1)CP(=O)(OCC)OCC (stereo not drawn) |
| 68 to 70 | O=C1NC(=O)C(Cc2ccc(OCCN3c4ccccc4Sc4ccccc43)cc2)S1 (stereo not drawn) |
| 205 to 213 | CCOC(=O)c1ccc(N=C(Nc2ccc(C(=O)OCC)cc2)c2ccc(C#N)cc2)cc1 |
| 181 to 183 | CCCc1nc2c(N)nc3c(c2n1CCCC(=O)N1CCOCC1)CCCC3 |
| 148 to 149 | O=CNNC(=S)Nc1ccccc1F |
| 150 to 153 | COc1ccc(CN(C)C(=O)c2c(-c3ccncc3)c(-c3ccc(F)cc3)nn2C)cc1 |
| 135 to 137 | C=CC(=O)c1ccc(O)c(Cl)c1Cl |
| 152 to 154 | CC(C)(C)c1ccc2c(c1)Cc1cc(C(C)(C)C)ccc1S2 |
| 199 to 200 | Cn1ncc2c(=S)n3c(nc21)SCC3 |
| 153 to 155 | C#CC(C)Oc1cc(Cc2cnc(N)nc2N)cc(OC)c1OC (stereo not drawn) |
